Reference: US11976083B2, “Inhibitors of peptidylarginine deiminases” (Gilead Sciences, Inc., priority 2020, dated 2024)

Molecular target: T1, human PAD4 (Homo sapiens, UniProt Q9UM07)
T1 construct: human PAD4 (NM_012387), A2-P663, was PCR amplified; His-SUMO (N, cleaved yes); made in house; host or cells: E. coli BL21(DE3)
Test: In vitro PAD4 BAEE biochemical assay
Details: BAEE substrate 3 mM, 5 nM PAD4, 2 mM calcium chloride; geometric mean of multiple experiments
Procedure, shortened: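 Fluorescence read-out (ex 405/em 535 nm) of isoindole formed from ammonia, o-phthalaldehyde and DTT after EDTA stop. Reaction: 5 nM PAD4, 2 mM CaCl2, 3 mM BAEE, 2 h, 25 °C, after 30 min enzyme–compound preincubation. Normalised to BB-Cl-Amidine (50 µM) and DMSO controls.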

T1 sequence (Q9UM07 2-663): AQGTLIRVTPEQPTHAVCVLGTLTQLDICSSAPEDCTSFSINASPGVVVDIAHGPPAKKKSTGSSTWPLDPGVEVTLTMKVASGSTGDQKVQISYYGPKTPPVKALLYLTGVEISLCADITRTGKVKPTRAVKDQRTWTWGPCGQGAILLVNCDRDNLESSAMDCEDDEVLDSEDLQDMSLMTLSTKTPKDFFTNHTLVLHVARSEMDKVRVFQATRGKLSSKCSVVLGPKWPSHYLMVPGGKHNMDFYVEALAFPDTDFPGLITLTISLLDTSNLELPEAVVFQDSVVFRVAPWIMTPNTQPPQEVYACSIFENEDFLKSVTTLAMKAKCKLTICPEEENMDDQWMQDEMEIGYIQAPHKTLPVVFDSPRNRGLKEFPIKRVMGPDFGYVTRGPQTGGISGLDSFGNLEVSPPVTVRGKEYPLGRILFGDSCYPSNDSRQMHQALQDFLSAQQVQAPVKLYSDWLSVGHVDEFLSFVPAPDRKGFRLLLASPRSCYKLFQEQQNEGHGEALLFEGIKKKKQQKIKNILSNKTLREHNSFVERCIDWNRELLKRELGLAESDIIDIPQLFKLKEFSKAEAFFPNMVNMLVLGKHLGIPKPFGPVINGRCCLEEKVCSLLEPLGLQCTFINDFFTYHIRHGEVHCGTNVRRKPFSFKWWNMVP

First: COc1cc(C(=O)N2C[C@H](N)[C@@H]3CC[C@H]2C3)cc2nc(-c3cc4ccc5nc4n3CCCCCc3cc(F)c(F)cc3C(=O)N[C@@H]5C)n(C)c12 [Example 927, (2~{R})-17-[5-[(1~{S},4~{R}, 5~{R})-4-amino-2-azabicyclo [3.2.1]octane-2-carbonyl]-7-methoxy-1-methyl-benzimidazol-2-yl]-7,8-difluoro-2-methyl-3,16,22-triazatetracyclo[14.5.2.0^ {5,10}.0^{19,23}]tricosa-1(22),5(10),6,8,17,19(23),20-heptaen-4-one]
Second: COc1cc(C(=O)N2C[C@H](N)[C@@H]3CC[C@H]2C3)cc2nc(-c3cc4ccc5nc4n3CCCCCc3cc(F)cc(F)c3C(=O)N[C@@H]5C)n(C)c12 [Example 935, (2~{R})-17-[5-[(1~{S),4~{R},5~ {R})-4-amino-2-azabicyclo[3.2.1]octane-2-carbonyl]-7-methoxy-1-methyl-benzimidazol-2-yl]-6,8-difluoro-2-methyl-3,16,22-triazatetracyclo[14.5.2.0^ {5,10}.0^{19,23}]tricosa-1(21),5(10),6,8,17,19,22-heptaen-4-one]
The IC50 of the first is 1.7-fold higher: 49 nM for the first, 29 nM for the second. The second is the more potent here.

Going from `COc1cc(C(=O)N2C[C@H](N)[C@@H]3CC[C@H]2C3)cc2nc(-c3cc4ccc5nc4n3CCCCCCC(C)(C)C(=O)N[C@@H]5C)c(C)n12` [Example 928, (11~{R})-17-[7-[(1~{S},4~{R}, 5~{R})-4-amino-2-azabicyclo [3.2.1]octane-2-carbonyl]-5-methoxy-3-methyl-imidazo [1,2-a]pyridin-2-yl]-8,8,11-trimethyl-1,10,19-triazatricyclo [10.5.2.0^{15,18}]nonadeca-12(19),13,15(18), 16-tetraen-9-one] to `COc1cc(C(=O)N2C[C@H](N)[C@@H]3CC[C@H]2C3)cc2nc(-c3cc4ccc5nc4n3CCCCC[C@H]3[C@H](C(=O)N[C@@H]5C)C3(F)F)c(C)n12` [Example 929, (2~{R},5~{R},7~{S})-14-[7-[(1~{S},4~{R},5~{R})-4-amino-2-azabicyclo[3.2.1]octane-2-carbonyl]-5-methoxy-3-methyl-imidazo[1,2-a]pyridin-2-yl]-6,6-difluoro-2-methyl-3,13,19-triazatetracyclo[11.5.2.0^ {5,7}.0^{16,20}]icosa-1(19), 14,16(20),17-tetraen-4-one], the IC50 falls from 51 nM to 18 nM (2.8-fold). The second is the more potent here.

Going from `COc1cc(C(=O)N2C[C@H](N)[C@@H]3CC[C@H]2C3)cc2nc(-c3cc4ccc5nc4n3CCCCC[C@H]3[C@H](C(=O)N[C@@H]5C)C3(F)F)n(C3CC3)c12` [Example 930, (2~{R},5~{R},7~{S})-14-[5-[(1~{S},4~{R},5~{R})-4-amino-2-azabicyclo[3.2.1]octane-2-carbonyl]-1-cyclopropyl-7-methoxy-benzimidazol-2-yl]-6,6-difluoro-2-methyl-3,13,19-triazatetracyclo[11.5.2.0^ {5,7}.0^{16,20}]icosa-1(19), 14,16(20),17-tetraen-4-one] to `COc1cc(C(=O)N2C[C@H](N)[C@@H]3CC[C@H]2C3)cc2nc(-c3cc4ccc5nc4n3CC(F)(F)CCCCC3(CC3)C(=O)N[C@@H]5C)n(C3CC3)c12` [Example 940, (11~{R})-17-[5-[(1~{S},4~{R}, 5~{R})-4-amino-2-azabicyclo [3.2.1]octane-2-carbonyl]-1-cyclopropyl-7-methoxy-benzimidazol-2-yl]-3,3-difluoro-11-methyl-spiro[1,10,19-triazatricyclo [10.5.2.0^{15,18}]nonadeca-12(19),13,15(18),16-tetraene-8,1′-cyclopropane]-9-one], the IC50 rises from 22 nM to 80 nM (3.6-fold).

`COc1cc(C(=O)N2C[C@H](N)[C@@H]3CC[C@H]2C3)cc2nc(-c3cc4ccc5nc4n3CC(F)(F)CCCOC3(CC3)C(=O)N[C@@H]5C)n(C3CC3)c12` [Example 931, (11~{R})-17-[5-[(1~{S},4~{R}, 5~{R})-4-amino-2-azabicyclo [3.2.1]octane-2-carbonyl]-1-cyclopropyl-7-methoxy-benzimidazol-2-yl]-3,3-difluoro-11-methyl-spiro[7-oxa-1,10,19-triazatricyclo[10.5.2.0^ {15,18}]nonadeca-12(19), 13,15(18),16-tetraene-8,1′-cyclopropane]-9-one] and `COc1cc(C(=O)N2C[C@H](N)[C@@H]3CC[C@H]2C3)cc2nc(-c3cc4ccc5nc4n3CC(F)(F)CCCCC(C)(C)C(=O)N[C@@H]5C)n(C3CC3)c12` [Example 941, (11~{R})-17-[5-[(1~{S},4~{R}, 5~{R})-4-amino-2-azabicyclo [3.2.1]octane-2-carbonyl]-1-cyclopropyl-7-methoxy-benzimidazol-2-yl]-3,3-difluoro-8,8,11-trimethyl-1,10,19-triazatricyclo[10.5.2.0^{15,18}] nonadeca-12(19), 13,15(18),16-tetraen-9-one] are within 1.5-fold of each other in IC50: 64 nM for the first, 68 nM for the second.

First: COc1cc(C(=O)N2C[C@H](N)[C@@H]3CC[C@H]2C3)cc2nc(-c3cc4ccc5nc4n3CCCCCc3nc(Cl)ccc3C(=O)NC5(C)C)n(C)c12 [Example 932, 17-[5-[(1~{S},4~{R},5~{R})-4-amino-2-azabicyclo[3.2.1]octane-2-carbonyl]-7-methoxy-1-methyl-benzimidazol-2-yl]-8-chloro-2,2-dimethyl-3,9,16,22-tetrazatetracyclo[14.5.2.0^ {5,10}.0^{19,23}]tricosa-1(21),5(10),6,8,17,19,22-heptaen-4-one]
Second: COc1cc(C(=O)N2C[C@H](N)[C@@H]3CC[C@H]2C3)cc2nc(-c3cc4ccc5nc4n3CCCCC[C@]3(F)C[C@H]3C(=O)NC5(C)C)n(C)c12 [Example 933, (5~{S},7~{S})-14-[5-[(1~{S},4~{R},5~{R})-4-amino-2-azabicyclo[3.2.1]octane-2-carbonyl]-7-methoxy-1-methyl-benzimidazol-2-yl]-7-fluoro-2,2-dimethyl-3,13,19-triazatetracyclo[11.5.2.0^ {5,7}.0^{16,20}]icosa-1(18), 14,16,19-tetraen-4-one]
The IC50 of the first is 2.1-fold higher: 58 nM for the first, 27 nM for the second. The second is the more potent here.

`COc1cc(C(=O)N2C[C@H](N)[C@@H]3CC[C@H]2C3)cc2nc(-c3cc4ccc5nc4n3CCCCCc3nc(C(F)(F)F)ncc3C(=O)N[C@@H]5C)n(C3CC3)c12` [Example 934, (2~{R})-17-[5-[(1~{S),4~{R},5~ {R})-4-amino-2-azabicyclo [3.2.1]octane-2-carbonyl]-1-cyclopropyl-7-methoxy-benzimidazol-2-yl]-2-methyl-8-(trifluoromethyl)-3,7,9,16,22-pentazatetracyclo[14.5.2.0^ {5,10}.0^{19,23}]tricosa-1(21),5(10),6,8,17,19,22-heptaen-4-one] and `COc1cc(C(=O)N2C[C@H](N)[C@@H]3CC[C@H]2C3)cc2nc(-c3cc4ccc5nc4n3CCCCCc3cc(C(F)(F)F)ncc3C(=O)N[C@@H]5C)n(C3CC3)c12` [Example 942, (2~{R})-17-[5-[(1~{S},4~{R},5~ {R})-4-amino-2-azabicyclo [3.2.1]octane-2-carbonyl]-1-cyclopropyl-7-methoxy-benzimidazol-2-yl]-2-methyl-8-(trifluoromethyl)-3,7,16,22-tetrazatetracyclo[14.5.2.0^ {5,10).0^{19,23}]tricosa-1(22), 5(10),6,8,17,19(23),20-heptaen-4-one] are within 1.5-fold of each other in IC50: 103 nM for the first, 72 nM for the second.

`COc1cc(C(=O)N2C[C@H](N)[C@@H]3CC[C@H]2C3)cc2nc(-c3cc4ccc5nc4n3CCCCCc3ccccc3C(=O)N[C@@H]5C)c(C)n12` [Example 936, (2~{R})-17-[7-[(1~{S},4~{R}, 5~{R})-4-amino-2-azabicyclo [3.2.1]octane-2-carbonyl]-5-methoxy-3-methyl-imidazo [1,2-a]pyridin-2-yl]-2-methyl-3,16,22-triazatetracyclo [14.5.2.0^{5,10).0^{19,23}] tricosa-1(21),5(10),6,8,17,19,22-heptaen-4-one] and `CCn1c(-c2cc3ccc4nc3n2CCCCCc2nc(Cl)ccc2C(=O)N[C@@H]4C)nc2cc(C(=O)N3C[C@H](N)[C@@H]4CC[C@H]3C4)cc(F)c21` [Example 939, (2~{R})-17-[5-[(1~{S),4~{R}, 5~{R})-4-amino-2-azabicyclo [3.2.1]octane-2-carbonyl]-1-ethyl-7-fluoro-benzimidazol-2-yl]-8-chloro-2-methyl-3,9,16,22-tetrazatetracyclo[14.5.2.0^ {5,10}.0^{19,23}]tricosa-1(22),5(10),6,8,17,19(23),20-heptaen-4-one] are within 1.5-fold of each other in IC50: 39 nM for the first, 44 nM for the second.

First: COc1cc(C(=O)N2CCC[C@@H](N)C2)cc2nc(-c3cc4ccc5nc4n3CCCCCCCCS(=O)(=O)N5C)n(C)c12 [Example 937]
Second: COc1cc(C(=O)N2C[C@H](N)[C@@H]3CC[C@H]2C3)cc2nc(-c3cc4ccc5nc4n3CC(F)(F)CCCCC(C)(C)C(=O)N[C@@H]5C)n(C)c12 [Example 943, (11~{R})-17-[5-[(1~{S},4~{R}, 5~{R})-4-amino-2-azabicyclo [3.2.1]octane-2-carbonyl]-7-methoxy-1-methyl-benzimidazol-2-yl]-3,3-difluoro-8,8,11-trimethyl-1,10,19-triazatricyclo[10.5.2.0^{15,18}] nonadeca-12(19), 13,15(18),16-tetraen-9-one]
The IC50 of the first is 3.9-fold higher: 187 nM for the first, 48 nM for the second. The second is the more potent here.

In the case of `CCn1c(-c2cc3ccc4nc3n2CCCCC[C@]2(F)C[C@H]2C(=O)N[C@@H]4C)nc2cc(C(=O)N3C[C@H](N)[C@@H]4CC[C@H]3C4)cc(F)c21` [Example 938, (2~{R},5~{S},7~{S})-14-[5-[(1~{S),4~{R},5~{R})-4-amino-2-azabicyclo[3.2.1]octane-2-carbonyl]-1-ethyl-7-fluoro-benzimidazol-2-yl]-7-fluoro-2-methyl-3,13,19-triazatetracyclo[11.5.2.0^ {5,7}.0^{16,20}]icosa-1(19), 14,16(20),17-tetraen-4-one], the IC50 is reported as 28 nM.
